According to patent publication USRE47689E1, “Compounds for treating spinal muscular atrophy” (PTC Therapeutics, Inc., priority 2011, dated 2019):

Key:
[1] = system: SMN2 minigene (full length SMN2 minigene mRNA containing SMN2 exon 7); test: SMN2 minigene mRNA splicing RT-qPCR assay in cultured cells; format: cell-based, human; conditions: HEK293H cells stably transfected with SMN2-A minigene, 24 hours, 7-point concentration curve, 1.5-fold relative to vehicle-treated cells; for EC (1.5-fold): Homo sapiens, HEK293-H, read-out: EC1.5x for production of full length SMN2 mRNA
How it was run: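 Lysates → one-step RT-qPCR, minigene-specific primers (0.4 μM final) + GAPDH multiplex, 40 cycles. FL/GAPDH vs DMSO; EC1.5x, star-binned.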

Smn protein = Smn protein assay in cultured cells (SMN HTRF); format: cell-based, human; conditions: 48 hours; for EC1.5x (concentration giving 1.5-fold Smn protein increase): SMA Type 1 patient fibroblast cells (GM03813), 7-point concentration curve, SMN HTRF, concentration producing 1.5 times Smn protein vs DMSO vehicle control, read-out: EC1.5x for Smn protein expression; for maximum fold (Fold) increase of Smn protein: SMA patient fibroblast cells, 7-point concentration data, fold increase relative to vehicle control (SMN HTRF)
How it was run: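 Smn in SMA fibroblast lysates, measured by anti-SMN HTRF after 48 h compound exposure; EC1.5x from fold change over vehicle.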

## Cc1cn2cc(-c3cc4ccc(N5CCN[C@@H](C)C5)cc4oc3=O)ccc2n1 [Compound 664, 3-(2-methylimidazo[1,2-a]pyridin-6-yl)-7-[(3S)-3-methylpiperazin-1-yl]-2H-chromen-2-one]
[1]
  EC (1.5-fold): < 0.1 µM
Smn protein
  EC1.5x (concentration giving 1.5-fold Smn protein increase): < 300 nM
  maximum fold (Fold) increase of Smn protein: ***** (fold increase >1.65)

## Cc1cn2cc(-c3cc4ccc(N5CCNCC5)cc4oc3=O)ccc2n1 [Compound 677, 3-(2-methylimidazo[1,2-a]pyridin-6-yl)-7-(piperazin-1-yl)-2H-chromen-2-one]
[1]
  EC (1.5-fold): < 0.1 µM
Smn protein
  EC1.5x (concentration giving 1.5-fold Smn protein increase): < 300 nM
  maximum fold (Fold) increase of Smn protein: **** (fold increase between >1.5 and ≤1.65)

## CCN1CCN(c2ccc3cc(-c4cn5cc(C)nc(C)c5n4)c(=O)oc3c2)C[C@H]1C [Compound 679, 3-(6,8-dimethylimidazo[1,2-a]pyrazin-2-yl)-7-[(3R)-4-ethyl-3-methylpiperazin-1-yl]-2H-chromen-2-one]
[1]
  EC (1.5-fold): < 0.1 µM
Smn protein
  EC1.5x (concentration giving 1.5-fold Smn protein increase): < 300 nM
  maximum fold (Fold) increase of Smn protein: ***** (fold increase >1.65)

## Cc1cn2cc(-c3cc4ccc(N5CCCN(C)CC5)cc4oc3=O)cc2c(C)n1 [Compound 681, 3-(1,3-dimethylpyrrolo[1,2-a]pyrazin-7-yl)-7-(4-methyl-1,4-diazepan-1-yl)-2H-chromen-2-one]
[1]
  EC (1.5-fold): < 0.1 µM
Smn protein
  EC1.5x (concentration giving 1.5-fold Smn protein increase): < 300 nM
  maximum fold (Fold) increase of Smn protein: **** (fold increase between >1.5 and ≤1.65)

## Cc1cn2cc(-c3cc4ccc(N5CCC(N)CC5)cc4oc3=O)cc2c(C)n1 [Compound 714, 7-(4-aminopiperidin-1-yl)-3-(1,3-dimethylpyrrolo[1,2-a]pyrazin-7-yl)-2H-chromen-2-one]
[1]
  EC (1.5-fold): 0.1 to 0.3 µM
Smn protein
  maximum fold (Fold) increase of Smn protein: * (maximum fold increase of ≤1.2)

## Cc1cn2cc(-c3cc4ccc(N5CCNC(C)(C)C5)cc4oc3=O)nc2c(C)n1 [Compound 736, 3-(6,8-dimethylimidazo[1,2-a]pyrazin-2-yl)-7-(3,3-dimethylpiperazin-1-yl)-2H-chromen-2-one]
[1]
  EC (1.5-fold): < 0.1 µM
Smn protein
  EC1.5x (concentration giving 1.5-fold Smn protein increase): < 300 nM
  maximum fold (Fold) increase of Smn protein: ***** (fold increase >1.65)

## Cc1cn2cc(-c3cc4ccc(N5CC6CC5CN6)cc4oc3=O)cc2cn1 (centres unmarked) [Compound 744, 7-(2,5-diazabicyclo[2.2.1]hept-2-yl)-3-(3-methylpyrrolo[1,2-a]pyrazin-7-yl)-2H-chromen-2-one]
[1]
  EC (1.5-fold): < 0.1 µM
Smn protein
  maximum fold (Fold) increase of Smn protein: ** (fold increase between >1.2 and ≤1.35)

## Cc1cn2cc(-c3cc4ccc(C5CCN(C)CC5)cc4oc3=O)nc2c(C)n1 [Compound 748, 3-(6,8-dimethylimidazo[1,2-a]pyrazin-2-yl)-7-(1-methylpiperidin-4-yl)-2H-chromen-2-one]
[1]
  EC (1.5-fold): < 0.1 µM
Smn protein
  EC1.5x (concentration giving 1.5-fold Smn protein increase): < 300 nM
  maximum fold (Fold) increase of Smn protein: ***** (fold increase >1.65)

## Cc1cn2cc(-c3cc4ccc(N5CCN(C6CC6)CC5)cc4oc3=O)cc2c(C)n1 [Compound 752, 7-(4-cyclopropylpiperazin-1-yl)-3-(1,3-dimethylpyrrolo[1,2-a]pyrazin-7-yl)-2H-chromen-2-one]
[1]
  EC (1.5-fold): < 0.1 µM
Smn protein
  EC1.5x (concentration giving 1.5-fold Smn protein increase): 300 to 1000 nM
  maximum fold (Fold) increase of Smn protein: **** (fold increase between >1.5 and ≤1.65)

## Cc1cn2cc(-c3cc4ccc(N5CCCN(C(C)C)CC5)cc4oc3=O)cc2cn1 [Compound 753, 3-(3-methylpyrrolo[1,2-a]pyrazin-7-yl)-7-[4-(propan-2-yl)-1,4-diazepan-1-yl]-2H-chromen-2-one]
[1]
  EC (1.5-fold): < 0.1 µM
Smn protein
  EC1.5x (concentration giving 1.5-fold Smn protein increase): 1000 to 3000 nM
  maximum fold (Fold) increase of Smn protein: *** (fold increase between >1.35 and ≤1.5)

## Cc1nc2ccc(-c3cc4ccc(N5CCN[C@@H](C)C5)cc4oc3=O)cc2s1 [Compound 770, 3-(2-methyl-1,3-benzothiazol-6-yl)-7-[(3S)-3-methylpiperazin-1-yl]-2H-chromen-2-one]
[1]
  EC (1.5-fold): < 0.1 µM
Smn protein
  EC1.5x (concentration giving 1.5-fold Smn protein increase): < 300 nM
  maximum fold (Fold) increase of Smn protein: **** (fold increase between >1.5 and ≤1.65)

## CC[C@H]1CN(c2ccc3cc(-c4cn5cc(C)nc(C)c5n4)c(=O)oc3c2)CCN1 [Compound 772, 3-(6,8-dimethylimidazo[1,2-a]pyrazin-2-yl)-7-[(3S)-3-ethylpiperazin-1-yl]-2H-chromen-2-one]
[1]
  EC (1.5-fold): < 0.1 µM
Smn protein
  EC1.5x (concentration giving 1.5-fold Smn protein increase): < 300 nM
  maximum fold (Fold) increase of Smn protein: ***** (fold increase >1.65)

## Cc1nc2ccc(-c3cc4ccc(N5CCN(C)[C@@H](C)C5)cc4oc3=O)cc2s1 [Compound 776, 7-[(3S)-3,4-dimethylpiperazin-1-yl]-3-(2-methyl-1,3-benzothiazol-6-yl)-2H-chromen-2-one acetate (2:1)]
[1]
  EC (1.5-fold): 1 to 3 µM
Smn protein
  maximum fold (Fold) increase of Smn protein: ** (fold increase between >1.2 and ≤1.35)

## Cc1nc(Cl)cn2cc(-c3cc4ccc(N5C[C@@H]6C[C@H]5CN6)cc4oc3=O)nc12 [Compound 780, 3-(6-chloro-8-methylimidazo[1,2-a]pyrazin-2-yl)-7-[(1S,4S)-2,5-diazabicyclo[2.2.1]hept-2-yl]-2H-chromen-2-one]
[1]
  EC (1.5-fold): < 0.1 µM
Smn protein
  EC1.5x (concentration giving 1.5-fold Smn protein increase): < 300 nM
  maximum fold (Fold) increase of Smn protein: **** (fold increase between >1.5 and ≤1.65)

## Cc1cn2cc(-c3cc4ccc(N5C[C@H]6CCCN(C)[C@H]6C5)cc4oc3=O)nc2c(C)n1 [Compound 782, 3-(6,8-dimethylimidazo[1,2-a]pyrazin-2-yl)-7-[(4aR,7aR)-1-methyloctahydro-6H-pyrrolo[3,4-b]pyridin-6-yl]-2H-chromen-2-one]
[1]
  EC1.5x for production of full length SMN2 mRNA: ***** (EC1.5x≤0.1 μM)
Smn protein
  EC1.5x (concentration giving 1.5-fold Smn protein increase): < 300 nM
  maximum fold (Fold) increase of Smn protein: **** (fold increase between >1.5 and ≤1.65)

## Cc1nc(Cl)cn2cc(-c3cc4ccc(N5C[C@@H]6C[C@H]5CN6C)cc4oc3=O)nc12 [Compound 787, 3-(6-chloro-8-methylimidazo[1,2-a]pyrazin-2-yl)-7-[(1S,4S)-5-methyl-2,5-diazabicyclo[2.2.1]hept-2-yl]-2H-chromen-2-one]
[1]
  EC (1.5-fold): < 0.1 µM
Smn protein
  EC1.5x (concentration giving 1.5-fold Smn protein increase): 300 to 1000 nM
  maximum fold (Fold) increase of Smn protein: *** (fold increase between >1.35 and ≤1.5)

## Cc1cn2cc(-c3cc4ccc(N5CCC(CNC(C)C)CC5)cc4oc3=O)cc2c(C)n1 [Compound 790, 3-(1,3-dimethylpyrrolo[1,2-a]pyrazin-7-yl)-7-{4-[(propan-2-ylamino)methyl]piperidin-1-yl}-2H-chromen-2-one]
[1]
  EC (1.5-fold): 0.3 to 1 µM
Smn protein
  maximum fold (Fold) increase of Smn protein: ** (fold increase between >1.2 and ≤1.35)

## Cc1cn2cc(-c3cc4ccc(N5C[C@@H]6CCCN(C)[C@@H]6C5)cc4oc3=O)nc2c(C)n1 [Compound 795, 3-(6,8-dimethylimidazo[1,2-a]pyrazin-2-yl)-7-[(4aS,7aS)-1-methyloctahydro-6H-pyrrolo[3,4-b]pyridin-6-yl]-2H-chromen-2-one]
[1]
  EC (1.5-fold): < 0.1 µM
Smn protein
  EC1.5x (concentration giving 1.5-fold Smn protein increase): < 300 nM
  maximum fold (Fold) increase of Smn protein: **** (fold increase between >1.5 and ≤1.65)
